Data: article PMC9848270, “Synthesis and biological assessment of indole derivatives containing penta-heterocycles scaffold as novel anticancer agents towards A549 and K562 cells” (Journal of Enzyme Inhibition and Medicinal Chemistry, 2023)

Legend:
[1] = tested on: human chronic myeloid leukaemia cells (K562); experiment: MTT antiproliferative assay, K562; format: cell-based; conditions: for inhibition at 10 µM: K562, 10 μM, read-out: Inhibition rate, K562; for IC50: K562, 48 h, MTT assay, 48 h, read-out: In vitro cytotoxicity IC50, K562
Description: (§1) A549, PC-3, HepG2 and K562 cells were purchased from the Kunming cell bank of the Chinese academy of sciences. All cell lines were cultured in DMEM or RPMI 1640 complete medium. Logarithmic growth cells were cultured in 96-well plates at a concentration of 10^4 cells per well and pre-cultured for 24 h before adding test compounds. The MTT test with 5-Fluorouracil and Gefitinib as reference compounds were used to evaluate antiproliferative activity of target compounds in four human cancer line cells. For the estimation of the inhibition concentration (IC50), the Graph Pad Prism (GraphPad Software, San Diego, CA) was used.

[2] = tested on: normal cell line (HEK293); experiment: MTT cytotoxicity, normal cell line HEK293; format: cell-based, human; conditions: Homo sapiens, HEK293; 10 μM; read-out: Inhibition rate, HEK293
[3] = MTT cytotoxicity, normal cell line HEK293; format: cell-based, human; conditions: human, HEK293 cells (normal cell line); MTT assay, 48 h; normal cell line; CC50; read-out: In vitro cytotoxicity IC50, HEK293
[4] = tested on: human non-small cell lung cancer cells (A549); experiment: MTT antiproliferative assay, A549; format: cell-based; conditions: for inhibition at 10 µM: A549, 10 μM, read-out: Inhibition rate, A549; for IC50: A549, 48 h, MTT assay, 48 h, read-out: In vitro cytotoxicity IC50, A549
Description: as §1

[5] = tested on: human liver cancer cells (HepG2); experiment: MTT antiproliferative assay, HepG2; format: cell-based; conditions: for inhibition at 10 µM: read-out: Inhibition rate, HepG2; for IC50: MTT assay, 48 h, read-out: In vitro cytotoxicity IC50, HepG2
Description: as §1

[6] = tested on: human prostate cancer cells (PC-3); experiment: MTT antiproliferative assay, PC-3; format: cell-based; conditions: Homo sapiens; for IC50: 48 h, MTT assay, read-out: In vitro cytotoxicity IC50, PC-3; for inhibition at 10 µM: read-out: Inhibition rate, PC-3
Description: as §1

Row | SMILES | melting point | inhibition at 10 µM [1] | IC50 [1] | inhibition at 10 µM [2] | IC50 at 48 h [3] | inhibition at 10 µM [4] | IC50 [4] | inhibition at 10 µM [5] | IC50 [5] | IC50 [6] | inhibition at 10 µM [6]
1 | COc1cc(-c2nnc(SCC(=O)Nc3cc(-c4c[nH]c5ccccc45)n[nH]3)n2N)cc(OC)c1OC [Compound 11b, N-(3-(1H-indol-3-yl)-1H-pyrazol-5-yl)-2-((4-amino-5–(3,4,5-trimethoxyphenyl)-4H-1,2,4-triazol-3-yl)thio)acetamide] | 259 to 261 °C | 96.4 ± 1.16% | 3.09 ± 0.41 µM | 72.1 ± 1.62% | 20.2 ± 4.08 µM | 32.6 ± 3.42% | 29.8 ± 4.05 µM | 72.7 ± 4.94% | 10.6 ± 1.42 µM | 5.73 ± 1.69 µM | 80.3 ± 3.56%
2 | Nn1c(SCC(=O)Nc2cc(-c3c[nH]c4ccccc34)n[nH]2)nnc1-c1cc(Cl)cc(Cl)c1 [Compound 11a, N-(3-(1H-indol-3-yl)-1H-pyrazol-5-yl)-2-((4-amino-5–(3,5-dichlorophenyl)-4H-1,2,4-triazol-3-yl)thio)acetamide] | 258 to 260 °C | 95.6 ± 1.68% | 3.64 ± 0.08 µM | 58.5 ± 2.72% | 16.8 ± 5.56 µM | 32.9 ± 3.84% | 27.3 ± 3.47 µM | 19.3 ± 4.13% | 40.3 ± 7.83 µM | 7.66 ± 1.5 µM | 79 ± 3.97%
3 | Nn1c(SCC(=O)Nc2cc(-c3c[nH]c4ccccc34)n[nH]2)nnc1-c1ccccc1F [Compound 11g, N-(3-(1H-indol-3-yl)-1H-pyrazol-5-yl)-2-((4-amino-5–(2-fluorophenyl)-4H-1,2,4-triazol-3-yl)thio)acetamide] | 226 to 227 °C | 98.5 ± 0.653% | 3.78 ± 0.54 µM | 65.4 ± 6.38% | 5.05 ± 1.17 µM | 67.5 ± 1.65% | 10.1 ± 2.37 µM | 74.9 ± 25.5% | 9.65 ± 5.87 µM | 6.52 ± 1.85 µM | 72.2 ± 13.2%
4 | COc1ccc(-c2nnc(SCC(=O)Nc3cc(-c4c[nH]c5ccccc45)n[nH]3)s2)cc1 [Compound 10e, N-(3-(1H-indol-3-yl)-1H-pyrazol-5-yl)-2-((5-(4-methoxyphenyl)-1,3,4-thiadiazol-2-yl)thio)acetamide] | – | 98.7 ± 1.05% | 0.193 ± 0.09 µM | 85.5 ± 1.26% | 0.89 ± 2.32 µM | 92.2 ± 1.01% | 0.834 ± 0.09 µM | 95.5 ± 0.354% | 0.801 ± 0.09 µM | 0.852 ± 0.43 µM | 92.5 ± 0.391%
5 | O=C(CSc1nnc(-c2ccc(Cl)cc2)s1)Nc1cc(-c2c[nH]c3ccccc23)n[nH]1 [Compound 10f, N-(3-(1H-indol-3-yl)-1H-pyrazol-5-yl)-2-((5-(4-chlorophenyl)-1,3,4-thiadiazol-2-yl)thio)acetamide] | – | 95.8 ± 3.98% | 0.991 ± 0.52 µM | 60.9 ± 6.65% | 2.56 ± 0.9 µM | 85.2 ± 3.63% | 4.33 ± 0.3 µM | 90.3 ± 2.77% | 3.34 ± 0.6 µM | 8.86 ± 7.04 µM | 58.7 ± 28.6%
6 | O=C(CSc1nnc(-c2cc(Cl)cc(Cl)c2)s1)Nc1cc(-c2c[nH]c3ccccc23)n[nH]1 [Compound 10a, N-(3-(1H-indol-3-yl)-1H-pyrazol-5-yl)-2-((5-(3,5-dichlorophenyl)-1,3,4-thiadiazol-2-yl)thio)acetamide] | – | 96 ± 2.31% | 0.0527 ± 0.02 µM | 87.6 ± 2.19% | 1.33 ± 0.07 µM | 85.6 ± 3.54% | 0.433 ± 0.1 µM | 76 ± 3.39% | 4.45 ± 0.42 µM | 0.141 ± 0.01 µM | 95.7 ± 0.624%
7 | Nn1c(SCC(=O)Nc2cc(-c3c[nH]c4ccccc34)n[nH]2)nnc1-c1ccncc1 [Compound 11o, N-(3-(1H-indol-3-yl)-1H-pyrazol-5-yl)-2-((4-amino-5-(pyridin-4-yl)-4H-1,2,4-triazol-3-yl)thio)acetamide] | 170 to 172 °C | – | 66 ± 3.48 µM | – | 21.8 ± 1.76 µM | – | 30.3 ± 7 µM | – | 33.4 ± 7.97 µM | 38.3 ± 1.75 µM | –

Further lines, with some results ahead:

Row | melting point | SMILES | inhibition at 10 µM [1] | IC50 [1] | inhibition at 10 µM [2] | IC50 at 48 h [3] | inhibition at 10 µM [4] | IC50 [4] | inhibition at 10 µM [5] | IC50 [5] | IC50 [6] | inhibition at 10 µM [6]
8 | 263 to 266 °C | Nn1c(SCC(=O)Nc2cc(-c3c[nH]c4ccccc34)n[nH]2)nnc1-c1ccccc1O [Compound 11q, N-(3-(1H-indol-3-yl)-1H-pyrazol-5-yl)-2-((4-amino-5–(2-hydroxyphenyl)-4H-1,2,4-triazol-3-yl)thio)acetamide] | 99.2 ± 1.2% | 2.34 ± 0.34 µM | 99.3 ± 0.02% | 2.66 ± 1.29 µM | 89.4 ± 2.21% | 4.14 ± 1.71 µM | 84.7 ± 11.4% | 8.23 ± 7.58 µM | 2.89 ± 0.15 µM | 86.3 ± 0.332%
9 | 209 to 212 °C | Nn1c(SCC(=O)Nc2cc(-c3c[nH]c4ccccc34)n[nH]2)nnc1-c1ccc(F)cc1 [Compound 11p, N-(3-(1H-indol-3-yl)-1H-pyrazol-5-yl)-2-((4-amino-5–(4-fluorophenyl)-4H-1,2,4-triazol-3-yl)thio)acetamide] | 11.7 ± 0.639% | 33.2 ± 4.95 µM | 5.33 ± 14.9% | 28.9 ± 0.52 µM | 23.9 ± 3.03% | 93.9 ± 7.47 µM | 22.8 ± 2.22% | 19.3 ± 6.15 µM | 33.3 ± 5.94 µM | 17.1 ± 1.22%
10 | 214 to 215 °C | Nn1c(SCC(=O)Nc2cc(-c3c[nH]c4ccccc34)n[nH]2)nnc1-c1ccc(Cl)cc1 [Compound 11f, N-(3-(1H-indol-3-yl)-1H-pyrazol-5-yl)-2-((4-amino-5–(4-chlorophenyl)-4H-1,2,4-triazol-3-yl)thio)acetamide] | 25 ± 3.24% | 32.3 ± 4.05 µM | 40.1 ± 2.19% | 18.1 ± 3.14 µM | 32.8 ± 4.22% | 11.8 ± 3 µM | 46.9 ± 6.62% | 9.04 ± 0.93 µM | 19.1 ± 8.43 µM | 28.9 ± 3.01%
11 | 241 to 243 °C | Nn1c(SCC(=O)Nc2cc(-c3c[nH]c4ccccc34)n[nH]2)nnc1-c1ccc[nH]1 [Compound 11r, N-(3-(1H-indol-3–yl)-1H-pyrazol-5-yl)-2-((4-amino-5-(1H-pyrrol-2-yl)-4H-1,2,4-triazol-3-yl)thio)acetamide] | 95 ± 2.52% | 1.84 ± 0.66 µM | 72.3 ± 5.76% | 1.53 ± 0.93 µM | 94.2 ± 1.81% | 2.72 ± 0.26 µM | 96.5 ± 1.22% | 1.75 ± 0.07 µM | 2.73 ± 1.05 µM | 79.4 ± 9.21%
12 | 233 to 235 °C | O=C(CSc1nnc(-c2cccnc2)s1)Nc1cc(-c2c[nH]c3ccccc23)n[nH]1 [Compound 10h, N-(3-(1H-indol-3-yl)-1H-pyrazol-5-yl)-2-((5-(pyridine-3-yl)-1,3,4-thiadiazol-2-yl)thio)acetamide] | 64.3 ± 8.28% | 6.93 ± 1.63 µM | 18.7 ± 8.52% | 21.9 ± 1.31 µM | 43.5 ± 1.7% | 7.96 ± 1.39 µM | 63.2 ± 5.32% | 5.58 ± 2.69 µM | 16.7 ± 4.86 µM | 28.9 ± 2.71%
